From patent publication US4049829A, “Sulphur containing hydroxy aliphatic compounds” (Societe anonyme dite: Laboratoire L. Lafon, priority 1974, dated 1977)
Where a name gives a salt, the structure may show the parent alone.

Tests used:
[1] = Experimental standard II: normal rats, five days oral treatment; type: in vivo, normal male Wistar rats; conditions: oral dose of 20 mg/kg, vs untreated normal rats
Method: The hypolipaemiant properties of the CRL 40 122 have been studied in rats according to two different standard experiments: A study on normal Wistar rats (standard II). The experiment was carried out over five days on normal male Wistar rats. The animals, numbering 8 per dose of the product to be studied, were treated orally daily, the last feed taking place 3 hours before the animals were killed. Each series was divided into two groups of animals: one group killed after 3 days of experiment; the other group killed after 5 days of experiment. The results were determined by comparison with 8 normal rats subjected to the same experimental conditions and not treated.

mice = test: Acute toxicity by oral dose, mice; type: in vivo
From the text: (§1) The product is not toxic. The experiments relating to acute toxicity by oral dose for mice and rats have given evidence that there is no mortality amongst animals treated up to a dose of 5 g/kg.

[2] = Overall activity from both experimental standards I and II; type: in vivo, Wistar rats; conditions: for product activity: of the order of
Method: The hypolipaemiant properties of the CRL 40 122 have been studied in rats according to two different standard experiments:
The experiment was conducted for two weeks on Wistar rats, subjected to a daily hyperlipidic diet at the dose of about 20 g for an animal of 150 g in average.
The activity of the product studied was determined by comparison with normal control groups of rats and with groups of rats subjected to a hyperlipidic diet and not treated. For each dose of CRL 40 122 there were three groups of five animals each (control group, group only receiving the hyperlipidic diet, and treated group). The results obtained correspond to the average of each of the series. A very interesting activity of CRL 40 122 appeared at active doses of 10 mg to 50 mg/kg in rats subjected to a hyperlipidic diet (decrease from 64 to 34% of the rate of blood lipids according to dose; decrease of cholesterol from 68 to 41%).
The experiment was carried out over five days on normal male Wistar rats. The animals, numbering 8 per dose of the product to be studied, were treated orally daily, the last feed taking place 3 hours before the animals were killed. Each series was divided into two groups of animals: one group killed after 3 days of experiment; the other group killed after 5 days of experiment.
The results were determined by comparison with 8 normal rats subjected to the same experimental conditions and not treated.
Overall these tests led to the following conclusions:
1. The two experimental standards, although very different give rise to a product activity of the order of: […]

[3] = Solubility (stated with the preparation); type: physicochemical
[4] = Human therapeutics: patients suffering from hyperlipaemia and hypercholesterolaemia; type: in vivo
rats = test: Acute toxicity by oral dose, rats; type: in vivo; conditions: up to a dose of 5 g/kg
From the text: as §1

[5] = Hypolipidic activity in rats on hyperlipidic diet (Table IV); type: in vivo; design: Burstein Test: unit not given here; conditions: for Total Cholesterol / Total Lipids / Burstein Test, % inhibition / Total Cholesterol, % inhibition / Total Lipids, % inhibition / Burstein Test: Table IV; for Burstein Test, % inhibition / Total Cholesterol, % inhibition / Total Lipids, % inhibition: normal = 100%, hyperlipidic = 0%
From the text: In Table IV below the following results have been obtained.
A -- in rats receiving a normal diet (percentage inhibition = 100%);
B -- in rats receiving a hyperlipidic diet (percentage inhibition = 0%);
C -- in rats receiving the same hyperlipidic diet B with a daily dose of 0.1 g/kg of a reference normolipidemiant LIPAVLON [ethyl-2-(p-chlorophenoxy)-2-methylpropionate; International name: CLOFIBRATE];
D -- in rats receiving the same hyperlipidic diet B with a daily dose of 0.1 g/kg of a reference normolipidemiant ATHEROLIP [aluminium salt of 2-(p-chlorophenoxy)-2-methylpropionic acid];
E -- in rats receiving the same hyperlipidic diet B with a daily dose of 0.1 g/kg of a reference normolipidemiant, LL 1558 [1,10-bis(2-hydroxyethyl-thio)decane];
F -- in rats receiving the same hyperlipidic diet B with a daily dose 0.010 g/kg, 0.025 g/kg or 0.050 g/kg of CRL 40046.
The averages of the tests effected on CRL 40 055 in three different doses and calculated comparatively to reference products corresponding to various experiments allow an activity of the product to be concluded as follows: […]

[6] = total dose of 400 mg per day, capsules of 100 mg and 200 mg
[7] = first experiment, hyperlipidic diet + product 0,1g/kg daily
[8] = first experiment, hyperlipidic diet + product 0,050g/kg daily
[9] = second experiment, hyperlipidic diet + product 0,025g/kg daily
[10] = third experiment, hyperlipidic diet + product "010g/kg" daily
[11] = second experiment, hyperlipidic diet + product 0,1g/kg daily
[12] = third experiment, hyperlipidic diet + product 0,1g/kg daily

With `CC(CO)SCCCCCCCCCCSC(C)CO` (racemic) [CRL 40 122, (±)-2,15-Dimethyl-3,14-dithia-1,16-hexadecanediol] the decrease in cholesterol [1] was 23%, the “decrease in total lipids” value [1] was 31% and the “toxicity (in words)” value (mice; acute oral, mice and rats) was “not toxic”. For the same compound, the mortality (mice; oral, mice, up to a dose of 5 g/kg) was “no mortality”, the “appearance of activity (onset)” value [2] was “after the third day of treatment” and the product activity ([2]; dose of 10 mg/kg) was ~20%. The product activity ([2]; dose of 20 mg/kg) was ~30%, the product activity ([2]; dose of 50 mg/kg) was ~60% and the solubility in water [3] was “insoluble”. For the same compound, the “use in human therapeutics (in words)” value ([4]; capsules dosed at 100 mg and at 200 mg) was “used with success”, the hypercholesterolaemia [4, 6] was “decrease after several days of treatment” and the hyperlipaemia [4, 6] was “decrease after several days of treatment”. The mortality (rats) was “no mortality”.
With `CC(C)(Oc1ccc(Cl)cc1)C(=O)O` [Atherolip, aluminium salt of 2-(p-chlorophenoxy)-2-methylpropionic acid] the “Total Cholesterol” value [5, 7] was 2.08 g/L, the “Total Lipids” value [5, 7] was 6.8 g/L and the “Burstein Test, % inhibition” value [5, 7] was 67%. The “Total Cholesterol, % inhibition” value [5, 7] was 59% and the “Total Lipids, % inhibition” value [5, 7] was 49%.
For `CC(C)(CO)SCCCCCCCCCCSC(C)(C)CO` [CRL 40 055, 2,2,15,15-Tetramethyl-3,14-dithia-1,16-hexadecanediol], the solubility in water [3] was “insoluble”, the “Burstein Test” value [5, 8] was 64 and the “Total Cholesterol” value [5, 8] was 2.29 g/L. For the same compound, the “Total Lipids” value [5, 8] was 7.45 g/L, the “Burstein Test, % inhibition” value [5, 8] was 58% and the “Total Cholesterol, % inhibition” value [5, 8] was 51%. For the same compound, the “Total Lipids, % inhibition” value [5, 8] was 41%, the “Burstein Test” value [5, 9] was 82 and the “Total Cholesterol” value [5, 9] was 2.43 g/L. For the same compound, the “Total Lipids” value [5, 9] was 8.06 g/L, the “Burstein Test, % inhibition” value [5, 9] was 30% and the “Total Cholesterol, % inhibition” value [5, 9] was 53%. The “Total Lipids, % inhibition” value [5, 9] was 37%, the “Total Cholesterol” value [5, 10] was 3.81 g/L and the “Total Lipids” value [5, 10] was 11.3 g/L. The “Burstein Test, % inhibition” value [5, 10] was 0%, the “Total Cholesterol, % inhibition” value [5, 10] was 0% and the “Total Lipids, % inhibition” value [5, 10] was 0%. The “activity (in words)” value ([5]; dose of 0.010 g/kg) was “the activity appears to have completely disappeared” and the “activity as compared with the reference products (in words)” value ([5]; dose of 0.025 g/kg vs reference products at 0.1 g/kg) was “substantially constant activity as compared with the reference products”.
In the case of `OCCSCCCCCCCCSCCO` [CRL 40 077, 1,8-Bis(2-hydroxyethyl-thio)-octane], the solubility in alcohol [3] was “soluble” and the solubility in water [3] was “insoluble”.
For `OCCSCCCCCCSCCO` [CRL 40 085, 1,6-Bis(2-hydroxyethyl-thio)-hexane], the solubility in alcohol [3] was “soluble” and the solubility in water [3] was “insoluble”.
With `OCCSCCCCCCCCCSCCO` [CRL 40 116, 1,9Bis(2-hydroxyethylthio)-nonane] the solubility in alcohol [3] was “soluble” and the solubility in water [3] was “insoluble”.
For `OCCSCCCCCCCSCCO` [CRL 40 120, 1,7-Bis(2-hydroxyethyl-thio)-heptane], the solubility in alcohol [3] was “soluble” and the solubility in water [3] was “insoluble”.
For `OCC(O)CSCCCCCCCCCCSCC(O)CO` (centres unmarked) [CRL 40 155, 1,10-Bis(2,3-dihydroxypropyl-thio)decan], the solubility in water [3] was “insoluble”.
With `OCCC(CO)SCCCCCCCCCCSC(CO)CCO` (centres unmarked) [CRL 40 176, 1,18-Dihydroxy-3,16-di(hydroxymethylene)-4,15-dithia-octadecane] the solubility in water [3] was “insoluble”.
In the case of `CC(CO)SCCCCCCCCCSC(C)CO` (centres unmarked) [CRL 40 193, 2,14-Dimethyl-3,13-dithia-1,15-pentadecanediol], the solubility in water [3] was “insoluble”.
In the case of `OCCSCCCCCCCCCCCSCCO` [CRL 40 194, 1,11-Bis-(2-hydroxyethyl-thio)-undecane], the solubility in water [3] was “insoluble”.
For `OCCSCCCCCCCCCCSCCO` [LL 1558, 1,10-bis(2-hydroxyethyl-thio)decane], the “Burstein Test” value [5, 11] was 38, the “Total Cholesterol” value [5, 11] was 1.33 g/L and the “Total Lipids” value [5, 11] was 5.1 g/L. The “Burstein Test, % inhibition” value [5, 11] was 87%, the “Total Cholesterol, % inhibition” value [5, 11] was 85% and the “Total Lipids, % inhibition” value [5, 11] was 82%. The “Burstein Test” value [5, 12] was 37, the “Total Cholesterol” value [5, 12] was 1.33 g/L and the “Total Lipids” value [5, 12] was 4.5 g/L. For the same compound, the “Burstein Test, % inhibition” value [5, 12] was 85%, the “Total Cholesterol, % inhibition” value [5, 12] was 70% and the “Total Lipids, % inhibition” value [5, 12] was 77%.
In the case of `CCOC(=O)C(C)(C)Oc1ccc(Cl)cc1` [Lipavlon, ethyl-2-(p-chlorophenoxy)-2-methylpropionate], the “Total Cholesterol” value [5, 7] was 2.47 g/L, the “Total Lipids” value [5, 7] was 7.75 g/L and the “Burstein Test, % inhibition” value [5, 7] was 49%. For the same compound, the “Total Cholesterol, % inhibition” value [5, 7] was 46%, the “Total Lipids, % inhibition” value [5, 7] was 37% and the “Total Cholesterol” value [5, 11] was 3 g/L. The “Total Lipids” value [5, 11] was 9.2 g/L, the “Burstein Test, % inhibition” value [5, 11] was 27% and the “Total Cholesterol, % inhibition” value [5, 11] was 36%. The “Total Lipids, % inhibition” value [5, 11] was 20%, the “Total Cholesterol” value [5, 12] was 1.58 g/L and the “Total Lipids” value [5, 12] was 7.3 g/L. The “Burstein Test, % inhibition” value [5, 12] was 25%, the “Total Cholesterol, % inhibition” value [5, 12] was 60% and the “Total Lipids, % inhibition” value [5, 12] was 22%.
